Laboratory results reported in ChEMBL document CHEMBL6083253, “Chemical synthesis and enzymatic late-stage diversification of novel pantothenate analogues with antiplasmodial activity” (Eur J Med Chem, 2024).
Calls of active or inactive are those of the source. No cut-off for these calls is given here.

Assays:
Plasmodium falciparum [1] = experiment: Antiplasmodial activity against intraerythrocytic stage of Plasmodium falciparum 3D7 assessed as inhibition of parasite proliferation in presence of pantetheinase; assay type: functional, organism-based
Plasmodium falciparum [2] = experiment: Antiplasmodial activity against Plasmodium falciparum infected in human Erythrocyte measured after 96 hrs in presence of chloroquine and 1 uM of pantothenate by SYBR green fluorescence dye based microplate reader analysis; assay type: functional, organism-based
Plasmodium falciparum [3] = experiment: Antiplasmodial activity against Plasmodium falciparum infected in human Erythrocyte measured after 96 hrs in presence of chloroquine and 100 uM of pantothenate by SYBR green fluorescence dye based microplate reader analysis; assay type: functional, organism-based
[4] = Cytotoxicity against HFF cells assessed as inhibition of cell proliferation at 200 uM incubated for 96 hrs in presence of 16.8 uM of pantothenate by IncuCyte live-cell analysis; assay type: toxicity, cell-based; settings: human
Priestia megaterium [5] = experiment: Substrate activity at full length C-terminal his-tagged Bacillus megaterium […] BM3 A82F/F87V double mutant assessed as conversion rate by UV-HPLC analysis
Priestia megaterium [6] = experiment: Substrate activity at full length C-terminal his-tagged Bacillus megaterium […] BM3 A82F/F87V double mutant preincubated for 5 min in presence of NADP+ followed by compound addition by LC-MS analysis
Priestia megaterium [7] = experiment: Substrate activity at full length C-terminal his-tagged wild type Bacillus megaterium […] BM3 preincubated for 5 min in presence of NADP+ followed by compound addition by LC-MS analysis
Plasmodium falciparum [8] = experiment: Antiplasmodial activity against intraerythrocytic stage of Plasmodium falciparum 3D7 assessed as inhibition of parasite proliferation; assay type: functional, organism-based
[9] = Binding affinity to full length C-terminal his-tagged Bacillus megaterium […] BM3 A82F/F87V double mutant assessed as dissociation constant by Michaelis-Menten equation based analysis; design: species or system Priestia megaterium
[10] = Binding affinity to full length C-terminal his-tagged Bacillus megaterium […] BM3 A82F/F87V double mutant assessed as dissociation constant by Morrison equation based analysis; design: species or system Priestia megaterium
Priestia megaterium [11] = experiment: Substrate activity at wild type full length C-terminal his-tagged Bacillus megaterium […] BM3 assessed as conversion rate by UV-HPLC analysis
[12] = Cytotoxicity against HFF cells assessed as inhibition of cell proliferation at 10 uM incubated for 96 hrs by IncuCyte live-cell analysis; assay type: toxicity, cell-based; settings: human

| SMILES | IC50 (Plasmodium falciparum [2]) | Activity (Priestia megaterium [6]) | Activity (Priestia megaterium [7]) | also measured |
| --- | --- | --- | --- | --- |
| CCCCCn1cc(CNC(=O)[C@H](O)C(C)(C)CO)nn1 |  |  |  | IC50 (Plasmodium falciparum [1]): 0.056 µM |
| CC(C)(CO)[C@@H](O)C(=O)NCc1cn(CC(O)Cc2ccccc2)nn1 (some centres undefined) | > 200 µM |  |  |  |
| CC(C)C(O)CCc1cc(CNC(=O)[C@H](O)C(C)(C)CO)no1 (some centres undefined) | 3.9 µM |  |  | IC50 (Plasmodium falciparum [3]): > 50 µM; inhibition at 96 h, 200 µM [4]: 101% |
| CC(C)(CO)[C@@H](O)C(=O)NCc1cn(CCCc2ccccc2)nn1 | 16 µM | Active | Active | Activity (Priestia megaterium [5]): 32.3%; IC50 (Plasmodium falciparum [8]): 25 µM; Kd [9]: 10 µM |
| CCCCCc1nnc(CNC(=O)[C@H](O)C(C)(C)CO)o1 |  | inactive | inactive |  |
| CC(C)Cc1cc(CNC(=O)[C@H](O)C(C)(C)CO)no1 | 0.47 µM | Active | Active | Kd [10]: 3 µM; Activity (Priestia megaterium [5]): 37.5%; IC50 (Plasmodium falciparum [3]): > 6.3 µM; inhibition at 96 h, 200 µM [4]: 100% |
| CCCCCCn1cc(CNC(=O)[C@H](O)C(C)(C)CO)nn1 |  |  |  | IC50 (Plasmodium falciparum [1]): 0.055 µM |
| CC(C)CCCc1cc(CNC(=O)[C@H](O)C(C)(C)CO)no1 | 0.35 µM | Active | Active | Kd [10]: 3.7 µM; Activity (Priestia megaterium [5]): Active; IC50 (Plasmodium falciparum [3]): > 3.1 µM; inhibition at 96 h, 200 µM [4]: 102% |
| CCCCCNC(=O)CCNC(=O)[C@H](O)C(C)(C)CO |  | inactive | inactive |  |
| CC(C)(O)CCc1cc(CNC(=O)[C@H](O)C(C)(C)CO)no1 | 29 µM |  |  |  |
| CC(C)CCc1cc(CNC(=O)[C@H](O)C(C)(C)CO)no1 | 0.22 µM | Active | Active | Activity (Priestia megaterium [11]): 85.6%; IC50 (Plasmodium falciparum [3]): > 3.1 µM; inhibition at 96 h, 200 µM [4]: 100% |
| CC(C)(O)CCCc1cc(CNC(=O)[C@H](O)C(C)(C)CO)no1 | 55 µM |  |  |  |
| CC(C)(C)Cc1cc(CNC(=O)[C@H](O)C(C)(C)CO)no1 | 4 µM | inactive | Active | IC50 (Plasmodium falciparum [3]): > 50 µM; inhibition at 96 h, 200 µM [4]: 102% |
| CCC(C)c1cc(CNC(=O)[C@H](O)C(C)(C)CO)no1 (some centres undefined) | 10 µM | inactive | inactive |  |
| CC[S+]([O-])Cc1cc(CNC(=O)[C@H](O)C(C)(C)CO)no1 (some centres undefined) | 153 µM |  |  |  |
| CCCCCc1cc(CNC(=O)[C@H](O)C(C)(C)CO)no1 |  |  |  | IC50 (Plasmodium falciparum [1]): 0.16 µM |
| CCCCc1cc(CNC(=O)[C@H](O)C(C)(C)CO)no1 |  |  |  | IC50 (Plasmodium falciparum [1]): 0.072 µM |
| CC(C)C(O)c1cc(CNC(=O)[C@H](O)C(C)(C)CO)no1 (some centres undefined) | 80 µM |  |  |  |
| CCCCCc1noc(CNC(=O)[C@H](O)C(C)(C)CO)n1 |  | Active | Active | Activity (Priestia megaterium [5]): 32.9% |
| C[C@@H]1C[C@@H]([C@H](O)CC2CC(=O)NC(=O)C2)C(=O)[C@@H](C)C1 [CYCLOHEXIMIDE] |  |  |  | inhibition at 96 h, 10 µM [12]: 100% |
| CCSCc1cc(CNC(=O)[C@H](O)C(C)(C)CO)no1 | 0.13 µM | Active | Active | Kd [10]: 0.9 µM; Activity (Priestia megaterium [5]): Active; IC50 (Plasmodium falciparum [3]): > 1.6 µM; inhibition at 96 h, 200 µM [4]: 100% |
| CCCCCc1nnc(CNC(=O)[C@H](O)C(C)(C)CO)[nH]1 |  | inactive | inactive |  |
| CC(C)C(O)Cc1cc(CNC(=O)[C@H](O)C(C)(C)CO)no1 (some centres undefined) | 7.3 µM |  |  |  |
